Results: paper PMC6406907, “A H2AX–CARP-1 Interaction Regulates Apoptosis Signaling Following DNA Damage” (Cancers, 2019)

Experiments:
Assay type in all cases: cell-based, human
[1] = system: CARP-1, phospho-JNK1/2, phospho-H2AX, PARP; test: Western blot of CARP-1, phospho-JNK1/2, γH2AX, cleaved PARP in MDA-MB-468; details: for expression of CARP-1, phospho-JNK1/2, phospho-H2AX / PARP cleavage: MDA-MB-468, WB; for PARP cleavage: robust cleaved PARP over 12-h treatment period; for CARP-1 levels and γH2AX: MDA-MB-468, WB / IF
Procedure: (§1) Logarithmically growing cells were either untreated or treated with different agents for various time periods. The cells were lysed to prepare protein extracts. IP was carried out by incubating approximately 1 mg of the protein lysate with appropriate antibodies. The immunoprecipitates were then analyzed by SDS-PAGE, followed by WB with respective, interacting protein. For Gst-pulldown, Gst-H2AX or various His-TAT-HA-tagged CARP-1 peptides were generated in Escherichia coli (E. coli) BL21 cells essentially as described by us previously. Briefly, the competent E. coli BL-21 (DE3) pLysS cells were transformed separately with various recombinant pGEX-4T-1 or pTAT-HA constructs. The transformed cells were then subjected to selection by combined presence of ampicillin and chloramphenicol; various isolates for each transformation were obtained and bacterial lysates were characterized for expression of fusion peptides. Cells from each isolate were grown in 4 mL of LB medium containing ampicillin only until the optical density (OD)600 reached 0.4–0.8. Expression of fusion peptides was induced over 2–4 h incubation periods after Isopropyl β-D-1-thiogalactopyranoside (IPTG) addition. The cells were harvested, and pellets were stored at −80 °C overnight. The cell pellets were then lysed in 100–400 μL of bacterial protein extraction reagent (BPER) buffer (Thermo Scientific, Waltham, MA, USA, Cat# 78243) containing 2 μL/mL of 10 units/μL DNAse I (Boehringer Mannheim, Fremont, CA, USA, Cat # 776–785), and supernatant checked for expression of respective fusion peptides by WB. Following confirmation of expression, 5–20 μL of lysate expressing Gst fusion protein was first incubated with 20 μL of precleared glutathione sepharose in a final volume of 100 μL at 4 °C for 2 h with constant rotation. The sepharose beads were spun at 800× g for 2 min, and the pellet was washed 2–4 times with 100–200 μL of RIPA buffer (20 mM Tris-HCl (pH 7.5), 150 mM NaCl, 1 mM Na2EDTA, 1 mM EGTA, 1% NP-40, 1% sodium deoxycholate, 2.5 mM sodium pyrophosphate, 1 mM β-glycerophosphate, 1 mM Na3VO4, 1 µg/mL leupeptin) with 0.5 M NaCl. The beads were spun again as above, and mixed with 5–20 μL of E. coli lysate expressing His-TAT-HA CARP-1 peptides. The reactions were incubated further at 4 °C for 2 h with constant rotation. The peptide-bound sepharose beads were pelleted and washed with 100–200 μL of RIPA buffer with 0.1 M NaCl for 2–4 washes. In some cases, additional washes with 0.05 M NaCl buffer were carried out. After the final wash, the sepharose–protein complexes were spun, and then re-suspended in SDS loading buffer for electrophoresis on 12–15% SDS PAGE, followed by WB with appropriate antibodies.
Here, we utilized human TNBC MDA-MB-468 and human cervical cancer HeLa cells to conduct an MTT-based dose-response analysis using Adriamycin and CFM compounds. […] Since Adriamycin, CFM-4, and CFM-4.16 have molecular masses of 543.3, 404.9, and 440.3, respectively, we chose to use an equimolar dose of each compound in the MTT assays. […] Prior reports established that phosphorylation of H2AX at serine 139 (γ-H2AX) is involved in DNA damage repair and apoptotic signaling by ATM/ATR and JNKs, respectively. Next, the MDA-MB-468, HeLa, and the kidney cancer UOK 262 cells were treated with a 10 μM dose of the CFM-4.16 or Adriamycin for various time periods. The cell lysates from the control, untreated, and treated cells were analyzed by WB for expression of CARP-1, phospho-JNK1/2, phospho-H2AX, and poly ADP ribose polymerase (PARP) proteins. […] The H2AX activation is also indicative of DNA damage and involves pro-apoptotic JNKs. Our data in Figure 1C and Figure S1B,C (Supplementary Materials) also show activation of JNKs; however, a robust JNK activation is co-incident with H2AX phosphorylation following treatments with Adriamycin or CFM-4.16. […]

[2] = system: CARP-1 interaction with γH2AX; test: Co-immunoprecipitation of myc-His-CARP-1 with γH2AX; details: for interaction of wild-type CARP-1 with γH2AX: MDA-MB-468 cells expressing myc-His-tagged CARP-1 (WT), IP/WB; for interaction of CARP-1 (Δ600–650) with γH2AX: in-frame deletion of CARP-1 amino acids 600–650, IP/WB
Procedure: as §1
We next carried out mutagenesis-based studies to map the interacting epitopes of CARP-1 and H2AX proteins. […]

[3] = system: MDA-MB-468 cells expressing EGFP or EGFP-CARP-1 (636–650); test: Flow cytometric analysis of apoptosis, MDA-MB-468 sublines; details: 10 μM, 24 h, EGFP vs EGFP-CARP-1 (636–650)-expressing MDA-MB-468
[4] = system: CARP-1, phospho-JNK1/2, phospho-H2AX, PARP; test: Western blot of CARP-1, phospho-JNK1/2, γH2AX, cleaved PARP in MDA-MB-468; details: for CARP-1 and γH2AX increase after knock-down of CARP-1: MDA-MB-468, CARP-1 knock-down; for JNK1/2 and H2AX activation: cells overexpressing myc-His-tagged CARP-1, WB

## COc1cccc2c1C(=O)c1c(O)c3c(c(O)c1C2=O)C[C@@](O)(C(=O)CO)C[C@@H]3O[C@H]1C[C@H](N)[C@H](O)[C@H](C)O1 [Adriamycin, doxorubicin, reference compound]
[1]; 10 μM Adriamycin, WB
  H2AX activation: robust at 12 h
[1]; 10 μM
  expression of CARP-1, phospho-JNK1/2, phospho-H2AX: stimulated expression of CARP-1, phospho-JNK1/2, and phospho-H2AX in a time-dependent manner
  PARP cleavage: provoked PARP cleavage in a time-dependent manner
[1]; 10 μM, MDA-MB-468, "as early as"
  time of earliest stimulation of PARP cleavage: 3 h
[1]; MDA-MB-468, Adriamycin alone, WB
  γH2AX: robust increase in γH2AX
[1]
  CARP-1 levels and γH2AX: robust increase in CARP-1 levels and γH2AX
[2]
  interaction of wild-type CARP-1 with γH2AX: robust interaction of wild-type CARP-1 with γH2AX
  interaction of CARP-1 (Δ600–650) with γH2AX: abrogated CARP-1 interaction with γH2AX
[3]
  cells undergoing apoptosis: generally higher percentage of EGFP-expressing cells undergoing apoptosis
[4]
  CARP-1 and γH2AX increase after knock-down of CARP-1: abrogated CARP-1 and γH2AX increase
  JNK1/2 and H2AX activation: time-dependent stimulation of JNK1/2 and H2AX activation
[4]; MDA-MB-468, single agent (JNK-IN-8 at 5 μM), WB
  levels of CARP-1: elevated levels of CARP-1

## O=C1N(Cc2ccccc2Cl)c2ccccc2C12NN=C(c1cccc(Cl)c1)S2 (centres unmarked) [CFM-4.16]
[1]; 10 μM
  expression of CARP-1, phospho-JNK1/2, phospho-H2AX: stimulated expression of CARP-1, phospho-JNK1/2, and phospho-H2AX in a time-dependent manner
  PARP cleavage: provoked PARP cleavage in a time-dependent manner
[1]
  CARP-1 levels and γH2AX: robust increase in CARP-1 levels and γH2AX
[2]
  interaction of wild-type CARP-1 with γH2AX: robust interaction of wild-type CARP-1 with γH2AX
  interaction of CARP-1 (Δ600–650) with γH2AX: abrogated CARP-1 interaction with γH2AX
[3]
  cells undergoing apoptosis: generally higher percentage of EGFP-expressing cells undergoing apoptosis
[4]
  CARP-1 and γH2AX increase after knock-down of CARP-1: abrogated CARP-1 and γH2AX increase
  JNK1/2 and H2AX activation: time-dependent stimulation of JNK1/2 and H2AX activation
